These results are taken from article PMC8508980, “Design, Synthesis and Anticancer Profile of New 4-(1H-benzo[d]imidazol-1-yl)pyrimidin-2-amine-Linked Sulfonamide Derivatives with V600EBRAF Inhibitory Effect” (International Journal of Molecular Sciences, 2021).

Common to all, as to test: NCI 60 cell line screen
What all share (assay type): cell-based

One assay relates to SN12C. As to conditions: Homo sapiens, Renal Cancer, read-out: Percent growth. In short, it runs like this: (§1)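 Human tumour lines were grown in RPMI 1640 with 5% FBS and 2 mM L-glutamine, then exposed 48 h at 37 °C to five concentrations (max 10 µM) after 24 h pre-incubation. Growth was measured by sulforhodamine B protein staining at 515 nm relative to time-zero and untreated controls.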

The next assay relates to SW-620. As to conditions: Homo sapiens; SW-620, Colon Cancer; read-out: Percent growth. The method in brief: as §1
The test system of another assay is SK-MEL-2. The following applies: Homo sapiens; SK-MEL-2, Melanoma; read-out: Percent growth. In short, it runs like this: as §1
The test system of a further assay is MALME-3M. As to conditions: Homo sapiens, Melanoma, read-out: Percent growth. The method in brief:
as §1

For a further assay, the system named is ACHN. The following applies: Homo sapiens, Renal Cancer, read-out: Percent growth. In short, it runs like this:
as §1

For the next assay, the system named is HOP-62. The following applies: Homo sapiens; HOP-62, Non-Small Cell Lung Cancer; read-out: Percent growth. In short, it runs like this: (§2)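 SRB read-out (515 nm) after 48 h drug exposure, 37 °C, RPMI 1640/5% FBS; five-point dilution series, top conc. 10 µM. Percent growth from Tz, control and treated absorbances; GI50 and TGI derived.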
For the next assay, the system named is HCT-116. As to conditions: Homo sapiens; HCT-116, Colon Cancer; read-out: Percent growth. The method in brief: as §1
In another assay the test system is SK-OV-3. As to conditions: Homo sapiens; SK-OV-3, Ovarian Cancer; read-out: Percent growth. In short, it runs like this:
as §1

A further assay deals with TK-10. As to conditions: Homo sapiens; TK-10, Renal Cancer; read-out: Percent growth. In short, it runs like this:
as §1

The subject of the next assay is MDA-MB-231/ATCC. As to conditions: Homo sapiens, Breast Cancer, read-out: Percent growth. The method in brief: as §1
The next assay deals with MCF7. The following applies: Homo sapiens; MCF7, Breast Cancer; read-out: Percent growth. The method in brief: as §1
A further assay deals with HL-60(TB). As to conditions: Homo sapiens, Leukemia, read-out: Percent growth. The method in brief:
as §2

The subject of the next assay is SNB-19. The following applies: Homo sapiens; SNB-19, CNS-Cancer; read-out: Percent growth. In short, it runs like this: as §1
A further assay has as its system BT-549. The following applies: Homo sapiens; BT-549, Breast Cancer; read-out: Percent growth. In short, it runs like this: as §1
The test system of the next assay is SF-539. As to conditions: Homo sapiens; SF-539, CNS-Cancer; read-out: Percent growth. In short, it runs like this: as §1
The test system of a further assay is NCI-H322M. The following applies: Homo sapiens, Non-Small Cell Lung Cancer, read-out: Percent growth. In short, it runs like this:
as §1

The subject of the next assay is HS 578T. The following applies: Homo sapiens, Breast Cancer, read-out: Percent growth. In short, it runs like this: as §1
For the next assay, the system named is A498. The following applies: Homo sapiens; A498, Renal Cancer; read-out: Percent growth. In short, it runs like this:
as §1

The next assay has as its system DU-145. The following applies: Homo sapiens; DU-145, Prostate Cancer; read-out: Percent growth. The method in brief:
as §1

The test system of another assay is IGROV1. The following applies: Homo sapiens, IGROV-1; IGROV1, Ovarian Cancer; read-out: Percent growth. In short, it runs like this:
as §1

The test system of a further assay is UACC-62. The following applies: Homo sapiens; UACC-62, Melanoma; read-out: Percent growth. In short, it runs like this:
as §2

The test system of another assay is OVCAR-5. The following applies: Homo sapiens; OVCAR-5, Ovarian Cancer; read-out: Percent growth. The method in brief: as §1
The subject of another assay is SF-268. The following applies: Homo sapiens; SF-268, CNS-Cancer; read-out: Percent growth. In short, it runs like this: as §1

Molecules are shown by their SMILES.

For the molecule `Cc1ccc(S(=O)(=O)NCCNc2nccc(-n3cnc4ccccc43)n2)cc1` [12g, N-(2-((4-(1H-benzo [d]imidazol-1-yl)pyrimidin-2-yl)amino)ethyl)-4-methyl benzenesulfonamide], the activity at 10 µM in the assay on SN12C came out at 79%; in the assay on SW-620, 90.8%; in the assay with SK-MEL-2, 87.7%; in the assay with MALME-3M, 90.2%; in the assay with ACHN, 73%; in the assay with HOP-62, 69.6%. For the same molecule, the activity at 10 µM with HCT-116 was 64.1%; with SK-OV-3 it was 79.5%; with TK-10, 83.7%; in the assay with MDA-MB-231/ATCC it was 62.5%; in the assay with MCF7, 67.9%; in the assay on HL-60(TB), 91.2%. Further, the activity at 10 µM in the assay on SNB-19 was 86.8%; in the assay with BT-549, 63.7%; with SF-539, 79.7%; with NCI-H322M, 94.4%; in the assay with HS 578T, 64.2%; in the assay on A498, 62.1%. In addition, the activity at 10 µM in the assay on DU-145 came out at 89.3%; in the assay on IGROV1, 75.2%; in the assay on UACC-62, 53%; in the assay on OVCAR-5 it was 87.8%; in the assay with SF-268, 68.8%.
For `O=S(=O)(NCCCNc1nccc(-n2cnc3ccccc32)n1)c1ccccc1` [12h, N-(3-((4-(1H-benzo [d]imidazol-1-yl)pyrimidin-2-yl)amino)propyl)benzenesulfonamide], the activity at 10 µM turned out to be 94.3% in the assay with SN12C; 107% with SW-620; 108% in the assay on SK-MEL-2; 108% in the assay on MALME-3M; 95.7% in the assay with ACHN; 96.9% with HOP-62. In addition, the activity at 10 µM was found to be 90.3% in the assay on HCT-116; 105% in the assay on SK-OV-3; 103% in the assay with TK-10; 92.4% in the assay with MDA-MB-231/ATCC; 87.7% with MCF7; 104% with HL-60(TB). In addition, the activity at 10 µM with SNB-19 stood at 103%; with BT-549, 96.5%; in the assay on SF-539, 89.4%; with NCI-H322M it was 109%; in the assay with HS 578T it was 93.7%; in the assay on A498, 78.4%. Also, the activity at 10 µM in the assay on DU-145 came out at 99.2%; in the assay with IGROV1, 107%; in the assay with UACC-62, 85%; in the assay on OVCAR-5, 99.1%; with SF-268, 91.7%.
Regarding `O=S(=O)(NCCCNc1nccc(-n2cnc3ccccc32)n1)c1ccc(F)cc1` [12i, N-(3-((4-(1H-benzo [d]imidazol-1-yl)pyrimidin-2-yl)amino)propyl)-4-fluorobenzenesulfonamide], the activity at 10 µM in the assay on SN12C stood at 89%; in the assay on SW-620, 96.2%; with SK-MEL-2, 85.8%; in the assay on MALME-3M, 86.1%; with ACHN, 81.2%; in the assay on HOP-62, 82.7%. Also, the activity at 10 µM with HCT-116 was found to be 58.7%; in the assay on SK-OV-3 it was 85.2%; in the assay on TK-10 it was 91.9%; in the assay with MDA-MB-231/ATCC, 74.4%; in the assay with MCF7, 63.7%; in the assay with HL-60(TB), 90.9%. In addition, the activity at 10 µM amounted to 92.6% in the assay on SNB-19; 34.9% in the assay with BT-549; 86.2% with SF-539; 99.5% in the assay with NCI-H322M; 82.4% with HS 578T; 70.5% in the assay on A498. For the same molecule, the activity at 10 µM with DU-145 came to 87.2%; with IGROV1 it was 91.8%; in the assay with UACC-62, 61.6%; in the assay with OVCAR-5 it was 98.6%; in the assay with SF-268, 86.3%.
